Test results reported in US6933319B2, “Resorcinol derivatives” (Pfizer Inc., priority 1999, dated 2005).

Target: T1, human tyrosinase (Homo sapiens, UniProt P14679)
T1 construct: endogenous in cells; host or cells: SKMEL 188 human melanoma cell line (lysate)
T1 sequence (P14679 19-529): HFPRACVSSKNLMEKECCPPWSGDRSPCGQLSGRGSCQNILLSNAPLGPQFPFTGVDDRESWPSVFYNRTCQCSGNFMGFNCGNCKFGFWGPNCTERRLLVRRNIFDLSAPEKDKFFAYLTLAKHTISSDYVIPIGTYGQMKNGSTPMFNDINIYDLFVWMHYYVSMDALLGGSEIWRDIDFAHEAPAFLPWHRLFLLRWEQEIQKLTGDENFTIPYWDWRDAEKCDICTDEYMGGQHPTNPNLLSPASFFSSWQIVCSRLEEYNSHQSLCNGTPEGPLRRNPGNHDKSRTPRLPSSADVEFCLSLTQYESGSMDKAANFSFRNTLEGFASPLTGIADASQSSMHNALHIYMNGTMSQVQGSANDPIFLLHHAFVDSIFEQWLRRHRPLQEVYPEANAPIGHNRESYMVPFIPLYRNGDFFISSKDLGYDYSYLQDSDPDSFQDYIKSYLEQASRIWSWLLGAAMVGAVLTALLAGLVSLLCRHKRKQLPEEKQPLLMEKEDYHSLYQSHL
Test: Tyrosinase (DOPA Oxidase) Assay Using Cell Lysate
Type: biochemical
Conditions: SKMEL 188 human melanoma cell lysate; L-DOPA 100 μg/ml; incubated 8 hrs; read at 405 nm
Description: 1. Tyrosinase (DOPA Oxidase) Assay Using Cell Lysate:
Human melanoma cell line, SKMEL 188 (licensed from Memorial Sloan-Kettering), is used in the cell lysate assay and the screen. In the assay, compounds and L-dihydroxyphenylalanine (L-DOPA) (100 μg/ml) are incubated with the cell lysates containing human tyrosinase for 8 hrs before the plates are read at 405 nm. Potency of the compounds in DOPA oxidase assay is correlated very well with that in tyrosine hydroxylase assay using ^3H-tyrosine as a substrate.

- IC50: ~2000 nM
Structure (SMILES): ON=C1CCC(c2ccc(O)cc2O)C1 (racemic) [Example 23, (±)-3-(2,4-Dihydroxyphenyl)cyclopentanone oxime]
